Reference: patent US20230405134A1, “NOVEL PROTAC CHIMERIC COMPOUND, AND PHARMACEUTICAL COMPOSITION COMPRISING SAME FOR PREVENTING, AMELIORATING, OR TREATING DISEASES THROUGH TARGET PROTEIN DEGRADATION” (POSTECH RESEARCH AND BUSINESS DEVELOPMENT FOUNDATION, priority 2020, published 2023)
Where a SMILES comes first, the peptide text is derived from it. Bridges are numbered along the chain shown (N, C = ends). [ ]: non-standard residue; d: D form. Cha = N[C@@H](CC1CCCCC1)C(=O)O; S5 = C=CCCC[C@](C)(N)C(=O)O

How the values were obtained:
[1] = molecular target: T1, UBR box (Saccharomyces cerevisiae, UniProt P19812); assay: Competitive fluorescence polarization (FP) assay against fluorescein-labeled RLAA peptide; type: binding, S. cerevisiae
T1 construct: UBR box (residues 113-194) in the UBR1 E3 ubiquitin ligase of S. cerevisiae; made in house
T1 sequence (P19812 113-194): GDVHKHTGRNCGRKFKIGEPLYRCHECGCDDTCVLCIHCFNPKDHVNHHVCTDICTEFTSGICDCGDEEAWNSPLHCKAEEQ
Protocol: An expression plasmid of the PAS-B domain of human SRC-1 (residues 257-385) tagged with His6 was provided by Professor John. A. Robinson. (ChemBioChem 2008, 9, 1318-1322). The plasmid was transformed into BL21 (DE3) pLysS cells, and the protein was cultured in Luria-Bertani broth medium and induced with 0.5 mM IPTG at 18° C. for 16 hours. Cell disruption was performed by ultrasonic treatment in a buffer (50 mM Tris-HCl pH 8.0, 200 mM NaCl and 1 mM TCEP), and insoluble materials were removed by centrifugation. HisTrap™ column (GE Healthcare, 17-5255-01) chromatography was performed on the buffer and 500 mM of imidazole was applied for elution. In order to remove the His6-tag, TEV protease was used and the cleaved samples were loaded in HisTrap™ as described above. The SRC-1 was further purified by size exclusion chromatography (HiLoad™ 16/600 Superdex 75 pg) in a final buffer of 20 mM Tris-HCl pH 7.5, 150 mM NaCl and 1 mM TCEP. The expression and purification of the UBR box (residues 113-194) in the UBR1 E3 ubiquitin ligase of S. cerevisiae was performed in the previous manner. (Nat. Struct. Mol. Biol. 2010, 17, 1175-1181).
A competitive fluorescence polarization (FP) assay was performed to evaluate the binding affinity of ND1-YL2 to the target protein. A fluorescently labeled 15-mer STAT-6 peptide (100 nM) was cultured with the PAS-B domain (5 μM) of SRC-1 in a binding buffer (50 mM HEPES, pH 7.4, 150 mM NaCl, and 0.01% Tween 20). After being placed in black Costar 384-well plates for 30 minutes, they were treated with various concentrations of YL2 and ND1-YL2. After further incubation for 1 hour, the polarization of fluorescence was measured by a Tecan F200 microplate reader (excitation wavelength: 485 nm; emission wavelength: 535 nm). IC50 values were determined using non-linear regression and fitted with GraphPad Prism® 4 software using the following equation: Y=Bottom+(Top-Bottom)/(1+10^X-LogIC50) (FIG. 11A). […] The binding affinity was calculated as described above (FIG. 11B).

[2] = system: HEK293T; assay: Cell viability assay; type: cell-based; settings: various concentrations, 48 hours
Protocol: To further confirm the above results, an MTT cell viability assay was performed. MDA-MB-231 (1×10^4 cells/well), HEK293T (1×10^4 cells/well) and Colo205 (2×10^4 cells/well) cells were seeded in a 96-well plate, and cultured under the conditions of 37° C. and 5% carbon dioxide. After 24 hours, the cells were washed twice with DPBS and treated with DMSO or various concentrations of ND1-YL2 in Opti-MEM medium for 48 hours. Cell viability was measured by the Cyto X cell viability assay kit (LPS solution) according to the manufacturer's instructions.

[3] = molecular target: SRC-1 (Homo sapiens, UniProt Q15788); assay: SRC-1 expression level in Colo205 cells by Western blot; type: cell-based; parameters: endogenous in cells; settings: Colo205 cells expressing very low levels of CRBN, various concentrations
SRC-1, sequence (Q15788 whole entry): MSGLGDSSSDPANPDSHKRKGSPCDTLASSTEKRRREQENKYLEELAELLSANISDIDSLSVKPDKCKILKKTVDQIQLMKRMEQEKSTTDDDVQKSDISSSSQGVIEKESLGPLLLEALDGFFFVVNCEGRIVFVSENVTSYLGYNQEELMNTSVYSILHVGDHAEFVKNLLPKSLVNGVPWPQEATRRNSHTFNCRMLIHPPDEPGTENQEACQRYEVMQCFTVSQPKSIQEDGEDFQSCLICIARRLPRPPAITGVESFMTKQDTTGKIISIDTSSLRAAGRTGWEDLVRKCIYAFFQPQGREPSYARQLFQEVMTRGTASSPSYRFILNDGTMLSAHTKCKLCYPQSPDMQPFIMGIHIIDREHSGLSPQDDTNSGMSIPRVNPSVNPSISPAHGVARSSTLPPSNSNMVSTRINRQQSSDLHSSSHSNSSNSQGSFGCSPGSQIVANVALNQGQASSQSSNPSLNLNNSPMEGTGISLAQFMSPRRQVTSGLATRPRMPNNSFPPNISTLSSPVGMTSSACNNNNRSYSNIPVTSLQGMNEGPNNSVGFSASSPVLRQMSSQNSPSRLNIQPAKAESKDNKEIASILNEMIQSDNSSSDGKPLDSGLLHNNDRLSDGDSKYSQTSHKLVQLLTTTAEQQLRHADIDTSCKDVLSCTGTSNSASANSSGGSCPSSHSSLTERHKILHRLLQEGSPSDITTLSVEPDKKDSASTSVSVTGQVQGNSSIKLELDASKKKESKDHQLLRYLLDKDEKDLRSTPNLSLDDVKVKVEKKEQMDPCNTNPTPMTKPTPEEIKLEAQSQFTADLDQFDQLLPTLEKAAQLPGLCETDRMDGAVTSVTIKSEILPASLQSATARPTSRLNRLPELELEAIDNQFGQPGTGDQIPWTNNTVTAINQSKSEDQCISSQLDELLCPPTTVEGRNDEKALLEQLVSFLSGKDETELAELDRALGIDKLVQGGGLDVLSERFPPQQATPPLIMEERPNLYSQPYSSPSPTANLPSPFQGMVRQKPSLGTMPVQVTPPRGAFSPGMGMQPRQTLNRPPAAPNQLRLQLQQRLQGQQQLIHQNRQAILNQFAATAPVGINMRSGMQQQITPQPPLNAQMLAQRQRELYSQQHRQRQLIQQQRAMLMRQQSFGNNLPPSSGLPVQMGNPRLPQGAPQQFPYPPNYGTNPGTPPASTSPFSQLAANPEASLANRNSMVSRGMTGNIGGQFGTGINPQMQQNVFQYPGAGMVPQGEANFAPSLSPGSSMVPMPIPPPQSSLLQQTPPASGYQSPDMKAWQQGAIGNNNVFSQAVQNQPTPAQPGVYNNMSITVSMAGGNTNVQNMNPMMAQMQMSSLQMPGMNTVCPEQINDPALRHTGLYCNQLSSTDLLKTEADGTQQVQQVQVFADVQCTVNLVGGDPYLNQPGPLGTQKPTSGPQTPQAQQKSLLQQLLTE
Protocol: MDA-MB-231 cells were cultured at 37° C. in Dulbecco's modified Eagle's medium (DMEM) supplemented with penicillin-streptomycin containing 10% fetal bovine serum (FBS) and 5% CO2. Colo205 and A549 cells were cultured at 37° C. in Roswell Park Memorial Institute medium supplemented with penicillin-streptomycin with 10% FBS and 5% CO2.
In order to compare the SRC-1 proteolytic activity of ND1-YL2 and CL1-YL2 peptides in cells, A549 cells, which are human lung carcinoma cells, were treated with various concentrations of CL1-YL2, and the effect on SRC-1 degradation was analyzed by Western blot. A549 cells were seeded at 5×10^5 cells per well in a 6-well plate (Corning). Colo205 cells were seeded at 6×10^5 cells per well in a 6-well plate. After incubation at 37° C. for 24 hours, the cells were treated with the synthesized compounds in Opti-MEM medium. The cells were washed twice with cold Dulbecco's phosphate buffered saline (DPBS) prior to cell lysis. In order to lyse the cells, the cells on ice were treated with lysis buffer (50 mM Tris HCl pH 7.4, 150 mM NaCl, 1% TritonX, 1 mM EDTA, 1 mM DTT and 1×protease inhibitor cocktail). The cell lysate was centrifuged at 13,000×rpm for 15 minutes at 4° C. The supernatant was collected and the protein concentration was determined by Pierce™ 660 nm protein assay. […]

CC(C)C[C@H](NC(=O)[C@H](C)NC(=O)[C@H](C)NC(=O)[C@H](C)NC(=O)[C@H](C)NC(=O)[C@H](CC(C)C)NC(=O)[C@@H](N)CCCNC(=N)N)C(=O)N[C@@H](CC(C)C)C(=O)N1CCC[C@H]1C(=O)N1CCC[C@H]1C(=O)N[C@H](C(=O)N[C@@H](CCC(=O)O)C(=O)N[C@@H](CCC(N)=O)C(=O)N[C@@H](CC(=O)O)C(=O)N[C@@H](CC(C)C)C(=O)N[C@@]1(C)CCC/C=C\CCC[C@@](C)(C(=O)N[C@@H](Cc2ccc(O)cc2)C(N)=O)NC(=O)[C@H](CC2CCCCC2)NC(=O)[C@H](CC(C)C)NC(=O)[C@H](CCCCN)NC1=O)[C@@H](C)O [ND1-YL2] (H-RLAAAALLPPTEQDL[S5]KL[Cha][S5]Y-NH2; staple (Z) 16-20)
Improved affinity for the UBR box compared to the RLAA tetrapeptide [1]: approximately 3 fold
Ki [1]: 1480 nM
Difference in binding affinity for target E3 ligase compared to CL1-YL2 ([1]; ND1-YL2 binds less strongly to its E3 ligase than CL1-YL2): ~10 fold
Effect on cell survival [2]: did not significantly affect the survival
Effect on SRC-1 expression level [3]: induced a decrease in the expression level of SRC-1 in a dose-dependent manner
